PubChem BioAssay (NCI)
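96-well plates; 48 h exposure; 5 concentrations. Endpoints by linear interpolation between flanking doses. Not reached: highest tested concentration assigned. Definition used: TGI = concentration required for complete inhibition of growth.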

Experiments:
Experiment in all cases: inhibition of tumour cell growth, NCI panel, 48 h
CCRF-CEM leukemia = system: CCRF-CEM leukemia
KM12 colon = system: KM12 colon
RXF 393 renal = system: RXF 393 renal
EKVX NSCLC = system: EKVX NSCLC
DU-145 prostate = system: DU-145 prostate
HL-60(TB) leukemia = system: HL-60(TB) leukemia
COLO 205 colon = system: COLO 205 colon
SF-539 CNS = system: SF-539 CNS
M14 melanoma = system: M14 melanoma
SF-268 CNS = system: SF-268 CNS
SN12C renal = system: SN12C renal
UO-31 renal = system: UO-31 renal
HT29 colon = system: HT29 colon
NCI-H226 lung = system: NCI-H226 lung
MDA-MB-231 breast = system: MDA-MB-231 breast
MDA-MB-435 = system: MDA-MB-435
ACHN renal = system: ACHN renal
MOLT-4 leukemia = system: MOLT-4 leukemia
K-562 leukemia = system: K-562 leukemia
HCT-15 colon = system: HCT-15 colon
SF-295 CNS = system: SF-295 CNS
U251 CNS = system: U251 CNS
SNB-19 CNS = system: SNB-19 CNS
OVCAR-3 ovarian = system: OVCAR-3 ovarian
MCF7 breast = system: MCF7 breast
786-0 renal = system: 786-0 renal
NCI-H460 lung = system: NCI-H460 lung
T-47D breast = system: T-47D breast
TK-10 renal = system: TK-10 renal
OVCAR-4 ovarian = system: OVCAR-4 ovarian
LOX IMVI melanoma = system: LOX IMVI melanoma
HOP-62 NSCLC = system: HOP-62 NSCLC
HCT-116 colon = system: HCT-116 colon
UACC-257 melanoma = system: UACC-257 melanoma
NCI/ADR-RES ovarian = system: NCI/ADR-RES ovarian
IGROV1 ovarian = system: IGROV1 ovarian
SK-MEL-28 melanoma = system: SK-MEL-28 melanoma
A549 NSCLC = system: A549 NSCLC
OVCAR-8 ovarian = system: OVCAR-8 ovarian
UACC-62 melanoma = system: UACC-62 melanoma
MDA-N = system: MDA-N
SW-620 colon = system: SW-620 colon
NCI-H23 lung = system: NCI-H23 lung
MALME-3M melanoma = system: MALME-3M melanoma
OVCAR-5 ovarian = system: OVCAR-5 ovarian
NCI-H522 lung = system: NCI-H522 lung
CAKI-1 renal = system: CAKI-1 renal
A498 renal = system: A498 renal
HCC-2998 colon = system: HCC-2998 colon
SK-MEL-5 melanoma = system: SK-MEL-5 melanoma
SK-OV-3 ovarian = system: SK-OV-3 ovarian
BT-549 breast = system: BT-549 breast
HOP-92 NSCLC = system: HOP-92 NSCLC
SNB-75 CNS = system: SNB-75 CNS
SK-MEL-2 melanoma = system: SK-MEL-2 melanoma
PC-3 prostate = system: PC-3 prostate

SMILES: COc1ccc(-c2c(C(C)=O)c(-c3ccccc3)n(C3OC(CO)C(O)C(O)C3O)c(=S)c2C#N)cc1 (stereo not drawn)
- TGI (CCRF-CEM leukemia): > 100 µM
- TGI (KM12 colon): > 100 µM
- TGI (RXF 393 renal): > 100 µM
- TGI (EKVX NSCLC): > 100 µM
- TGI (DU-145 prostate): > 100 µM
- TGI (HL-60(TB) leukemia): > 100 µM
- TGI (COLO 205 colon): > 100 µM
- TGI (SF-539 CNS): > 100 µM
- TGI (M14 melanoma): > 100 µM
- TGI (SF-268 CNS): > 100 µM
- TGI (SN12C renal): > 100 µM
- TGI (UO-31 renal): > 100 µM
- TGI (HT29 colon): > 100 µM
- TGI (NCI-H226 lung): > 100 µM
- TGI (MDA-MB-231 breast): > 100 µM
- TGI (MDA-MB-435): > 100 µM
- TGI (ACHN renal): > 100 µM
- TGI (MOLT-4 leukemia): > 100 µM
- TGI (K-562 leukemia): > 100 µM
- TGI (HCT-15 colon): > 100 µM
- TGI (SF-295 CNS): > 100 µM
- TGI (U251 CNS): > 100 µM
- TGI (SNB-19 CNS): > 100 µM
- TGI (OVCAR-3 ovarian): > 100 µM
- TGI (MCF7 breast): > 100 µM
- TGI (786-0 renal): > 100 µM
- TGI (NCI-H460 lung): > 100 µM
- TGI (T-47D breast): > 100 µM
- TGI (TK-10 renal): > 100 µM
- TGI (OVCAR-4 ovarian): > 100 µM
- TGI (LOX IMVI melanoma): > 100 µM
- TGI (HOP-62 NSCLC): > 100 µM
- TGI (HCT-116 colon): > 100 µM
- TGI (UACC-257 melanoma): > 100 µM
- TGI (NCI/ADR-RES ovarian): > 100 µM
- TGI (IGROV1 ovarian): > 100 µM
- TGI (SK-MEL-28 melanoma): > 100 µM
- TGI (A549 NSCLC): > 100 µM
- TGI (OVCAR-8 ovarian): > 100 µM
- TGI (UACC-62 melanoma): > 100 µM
- TGI (MDA-N): > 100 µM
- TGI (SW-620 colon): > 100 µM
- TGI (NCI-H23 lung): > 100 µM
- TGI (MALME-3M melanoma): > 100 µM
- TGI (OVCAR-5 ovarian): > 100 µM
- TGI (NCI-H522 lung): > 100 µM
- TGI (CAKI-1 renal): > 100 µM
- TGI (A498 renal): > 100 µM
- TGI (HCC-2998 colon): > 100 µM
- TGI (SK-MEL-5 melanoma): > 100 µM
- TGI (SK-OV-3 ovarian): > 100 µM

SMILES: CCN1CCCc2cc3c(C(F)(F)F)cc(=O)oc3cc21
- TGI (KM12 colon): > 100 µM
- TGI (RXF 393 renal): 63.2 µM
- TGI (EKVX NSCLC): > 100 µM
- TGI (BT-549 breast): > 100 µM
- TGI (DU-145 prostate): > 100 µM
- TGI (COLO 205 colon): > 100 µM
- TGI (SF-539 CNS): > 100 µM
- TGI (M14 melanoma): > 100 µM
- TGI (SF-268 CNS): > 100 µM
- TGI (SN12C renal): > 100 µM
- TGI (UO-31 renal): > 100 µM
- TGI (HT29 colon): > 100 µM
- TGI (NCI-H226 lung): > 100 µM
- TGI (MDA-MB-231 breast): > 100 µM
- TGI (MDA-MB-435): > 100 µM
- TGI (ACHN renal): > 100 µM
- TGI (MOLT-4 leukemia): > 100 µM
- TGI (K-562 leukemia): > 100 µM
- TGI (HCT-15 colon): > 100 µM
- TGI (SF-295 CNS): > 100 µM
- TGI (U251 CNS): > 100 µM
- TGI (SNB-19 CNS): > 100 µM
- TGI (OVCAR-3 ovarian): > 100 µM
- TGI (MCF7 breast): > 100 µM
- TGI (HOP-92 NSCLC): 84 µM
- TGI (786-0 renal): > 100 µM
- TGI (NCI-H460 lung): > 100 µM
- TGI (T-47D breast): > 100 µM
- TGI (SNB-75 CNS): 96.7 µM
- TGI (TK-10 renal): > 100 µM
- TGI (OVCAR-4 ovarian): > 100 µM
- TGI (SK-MEL-2 melanoma): > 100 µM
- TGI (LOX IMVI melanoma): > 100 µM
- TGI (HOP-62 NSCLC): > 100 µM
- TGI (HCT-116 colon): > 100 µM
- TGI (UACC-257 melanoma): > 100 µM
- TGI (IGROV1 ovarian): > 100 µM
- TGI (SK-MEL-28 melanoma): > 100 µM
- TGI (A549 NSCLC): > 100 µM
- TGI (OVCAR-8 ovarian): > 100 µM
- TGI (UACC-62 melanoma): > 100 µM
- TGI (MDA-N): > 100 µM
- TGI (PC-3 prostate): 93.1 µM
- TGI (SW-620 colon): > 100 µM
- TGI (NCI-H23 lung): > 100 µM
- TGI (OVCAR-5 ovarian): > 100 µM
- TGI (NCI-H522 lung): > 100 µM
- TGI (CAKI-1 renal): > 100 µM
- TGI (A498 renal): > 100 µM
- TGI (HCC-2998 colon): > 100 µM
- TGI (SK-MEL-5 melanoma): 72.3 µM
- TGI (SK-OV-3 ovarian): > 100 µM
